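Five compound concentrations were applied to cells in 96-well plates for 48 hours; endpoints were derived by simple linear interpolation of the resulting dose-response curve. GI50 marks 50% less growth. The concentration for full growth arrest is given as TGI.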
Experiments:
Test in all cases: NCI tumour cell line growth inhibition, 48 h
[1] = tested on: 786-0 renal
[2] = tested on: CAKI-1 renal
[3] = tested on: EKVX NSCLC
[4] = tested on: HT29 colon
[5] = tested on: M14 melanoma
[6] = tested on: MALME-3M melanoma
[7] = tested on: NCI-H460 lung
[8] = tested on: OVCAR-8 ovarian
[9] = tested on: U251 CNS
[10] = tested on: UO-31 renal

SMILES	GI50 [1]	TGI [1]	GI50 [2]	TGI [2]	GI50 [3]	TGI [3]	GI50 [4]	TGI [4]	GI50 [5]	TGI [5]	GI50 [6]	TGI [6]	GI50 [7]	TGI [7]	GI50 [8]	TGI [8]	GI50 [9]	TGI [9]	GI50 [10]	TGI [10]
COC(=O)Nc1nc2ccc(Oc3ccc(NC(=O)Nc4cccc(Cl)c4)cc3)cc2[nH]1	1.87 µM	8.28 µM	1.74 µM	> 21.6 µM	3.71 µM	> 25 µM	0.682 µM	3.48 µM	1.25 µM	> 11.8 µM	0.564 µM	7.95 µM	0.802 µM	3.86 µM	2.84 µM	> 17.8 µM	1.25 µM	5.68 µM	6.93 µM	> 21.4 µM
C/C(=C\c1c[nH]c2ccccc12)[N+](=O)[O-]	4.27 µM	15.5 µM	5.67 µM	18.9 µM	10.2 µM	27.1 µM	3.02 µM	12.9 µM	2.57 µM	5.65 µM	2.54 µM	7.85 µM	4.18 µM	17.4 µM	4.18 µM	17.9 µM	2.14 µM	7.04 µM	4.85 µM	17.7 µM
CO[C@H]1CC[C@@]2(C)C(=CC[C@H]3[C@@H]4C[C@H](O)C[C@@]4(C)CC[C@@H]32)C1	11.7 µM	37.7 µM	2.93 µM	16.3 µM	6.85 µM	29 µM	3.59 µM	12.4 µM	3.61 µM	16.2 µM	5.22 µM	19.4 µM	3.56 µM	13.9 µM	5.14 µM	19.2 µM	3.54 µM	15 µM	6.53 µM	23.4 µM
Clc1ccc2nc(CCSCCc3nc4ccc(Cl)cc4[nH]3)[nH]c2c1	–	26.3 µM	–	20.2 µM	–	31.3 µM	–	24.1 µM	–	26.5 µM	–	–	–	31.7 µM	–	28 µM	–	26.8 µM	–	24.7 µM
COc1ccc2c(c1)[n+]([O-])c(-c1nc3ccccc3s1)c(N)[n+]2[O-]	–	> 100 µM	–	> 100 µM	–	> 100 µM	–	> 100 µM	–	> 100 µM	–	> 100 µM	–	> 100 µM	–	> 100 µM	–	> 100 µM	–	> 100 µM
O=C1c2ccccc2C(=O)c2nc(-c3ccccc3)c(-c3ccccc3)nc21	–	> 100 µM	–	> 100 µM	–	> 100 µM	–	> 100 µM	–	> 100 µM	–	> 100 µM	–	> 100 µM	–	> 100 µM	–	> 100 µM	–	> 100 µM
Cc1ccc2sc3c(NCCCNCCO)nc4ccccc4c3c(=O)c2c1	1.7 µM	3.23 µM	1.43 µM	2.82 µM	1.61 µM	3.08 µM	1.67 µM	3.36 µM	1.61 µM	3.06 µM	1.69 µM	3.18 µM	1.7 µM	3.24 µM	1.74 µM	3.61 µM	1.6 µM	3.18 µM	1.28 µM	2.58 µM
O=C(CC1(O)C(=O)Nc2c(Cl)cc(Cl)cc21)c1ccc2ccccc2c1 (centres undefined)	–	23.8 µM	–	19.8 µM	–	23.4 µM	–	18.5 µM	–	16.6 µM	–	19.7 µM	–	18.1 µM	–	26 µM	–	18.7 µM	–	24.5 µM
CCOC(=O)C1=C(C)N(NC(=O)c2ccccc2)C2(O)CCCC12C(=O)OCC (centres undefined)	–	> 100 µM	–	> 100 µM	–	> 100 µM	–	> 100 µM	–	> 100 µM	–	> 100 µM	–	> 100 µM	–	> 100 µM	–	> 100 µM	–	> 100 µM
Nc1nccc(Nc2ccc(S(N)(=O)=O)cc2)n1	–	> 100 µM	–	> 100 µM	–	> 100 µM	–	> 100 µM	–	> 100 µM	–	> 100 µM	–	> 100 µM	–	> 100 µM	–	> 100 µM	–	> 100 µM
Cc1c(CCl)c(=O)oc2c(C)c3occ(CCl)c(=O)c3cc12	–	> 100 µM	–	–	–	> 100 µM	–	–	–	37.5 µM	–	> 100 µM	–	> 100 µM	–	> 100 µM	–	> 100 µM	–	31.4 µM
CC(=O)Nc1ccc(/C=C/C(=O)c2sc(C(N)=S)nc2C)cc1	–	> 100 µM	–	> 100 µM	–	> 100 µM	–	> 100 µM	–	–	–	> 100 µM	–	> 100 µM	–	> 100 µM	–	> 100 µM	–	> 100 µM
CC(C)=CCC/C(C)=C/CC/C(=C/COP(=O)(OCc1ccc([N+](=O)[O-])o1)N(C)CCCCCl)C(C)(C)C (centres undefined)	2.53 µM	8.18 µM	5.78 µM	22 µM	6.48 µM	22.4 µM	12.5 µM	38.9 µM	2.69 µM	11.8 µM	–	–	5 µM	11.5 µM	10.7 µM	36.1 µM	1.76 µM	12 µM	> 23.3 µM	> 44.1 µM
Cc1ccc2[nH]c(=O)c(C(C#N)c3ccccc3)nc2c1 (centres undefined)	–	> 100 µM	–	76.9 µM	–	84 µM	–	> 100 µM	–	> 100 µM	–	> 100 µM	–	> 100 µM	–	–	–	84.5 µM	–	69.9 µM
COC1CC2CCC(C)[C@](O)(O2)C(=O)C(=O)N2CCCCC2C(=O)OC(C(C)CC2CCC(O)C(OC)C2)CC(=O)C(C)C=C(C)C(OC(=O)CN(C)C)C(OC)C(=O)C(C)CC(C)/C=C/C=C/C=C\1C (some centres undefined)	–	24.7 µM	–	–	–	20.3 µM	–	20.2 µM	–	23 µM	–	20.4 µM	–	21.7 µM	–	62.5 µM	–	18.2 µM	–	5.27 µM
COc1cc(-c2c(C)c(C)nc(OC)c2C#N)cc(OC)c1OC	–	> 100 µM	–	–	–	> 100 µM	–	> 100 µM	–	> 100 µM	–	> 100 µM	–	> 100 µM	–	> 100 µM	–	> 100 µM	–	> 100 µM
CCN(CC)CCOc1cc2c(C(=O)OC)c(C)oc2cc1C(C)=O	13.1 µM	25.9 µM	14.2 µM	31.2 µM	8.75 µM	22.1 µM	17 µM	94.9 µM	4.53 µM	16.9 µM	–	–	29.9 µM	91.8 µM	13.4 µM	30.3 µM	2.75 µM	10.7 µM	22.5 µM	> 100 µM
